In publication PMC2265061, “Compound Cytotoxicity Profiling Using Quantitative High-Throughput Screening” (Environmental Health Perspectives, 2007):
Entries after “also recorded” stand apart in the source; their conditions may differ. Like-named read-outs stand apart in the source and are kept apart here.

Assays:
[1] = test system: 13 human and rodent cell types; conditions: for Species selectivity of cytotoxicity (human versus rodent cell types): nine human versus four rodent cell types
From the text: Human renal mesangial cells obtained from adult kidney tissue were kindly provided by J. Kopp (National Institute of Diabetes and Digestive and Kidney Diseases, NIH, Bethesda, MD). Rat renal proximal tubule cells were freshly isolated from rat kidney by In Vitro ADMET Laboratories, LLC (Rockville, MD). All cells chosen for testing represent target tissues of interest in toxicology from both human and rodent sources; most were transformed lines, but some were nontransformed or primary cells. All are well-characterized cells, produce uniform populations, are relatively easy to culture, and are amenable to a 1,536-well format.
We measured cell viability using a luciferase-coupled ATP quantitation assay (CellTiter-Glo; Promega, Madison, WI). […] Cells were dispensed at 1,000–2,000 cells/5 μL/well in tissue-culture treated 1,536-well white/solid bottom assay plates (Greiner Bio-One North America, Monroe, NC) using a Flying Reagent Dispenser (Aurora Discovery, Carlsbad, CA). All but Jurkat cells (which are grown in suspension) were incubated at 37°C for 5–6 hr to allow for cell attachment, followed by addition of compounds via pin tool (Kalypsys, San Diego, CA). […] At the end of the incubation period, 5 μL of CellTiter-Glo reagent was added, plates were incubated at room temperature for 30 min, and the luminescence intensity of each well was determined using a ViewLux plate reader (PerkinElmer, Shelton, CT).
(§1) Class 1 or 2 compounds were further divided into subclasses based on efficacy and quality of fit (R^2). Compounds with R^2 > 0.9 and high (> 80%) efficacy were designated as subclass a, and compounds with R^2 > 0.9 and low efficacies (30–80%) as subclass b. […] Compound activity correlations between different assays or experiments were assessed by calculating the Pearson correlation coefficient. Hierarchical clustering of compound activity patterns across different assays was performed within Spotfire DecisionSite 8.2 (Spotfire Inc., Cambridge, MA) using the correlation of log IC50 values as the similarity metric.

[2] = test system: Rat kidney proximal tubule; conditions: mean ± SD
Protocol: (§2) We measured cell viability using a luciferase-coupled ATP quantitation assay (CellTiter-Glo; Promega, Madison, WI). In this assay, luminescent signal is proportional to amount of ATP and thus to the number of metabolically competent cells; cell injury and death result in a dramatic decrease in intracellular ATP levels ([Crouch et al. 1993]). Cells were dispensed at 1,000–2,000 cells/5 μL/well in tissue-culture treated 1,536-well white/solid bottom assay plates (Greiner Bio-One North America, Monroe, NC) using a Flying Reagent Dispenser (Aurora Discovery, Carlsbad, CA). All but Jurkat cells (which are grown in suspension) were incubated at 37°C for 5–6 hr to allow for cell attachment, followed by addition of compounds via pin tool (Kalypsys, San Diego, CA). […] At the end of the incubation period, 5 μL of CellTiter-Glo reagent was added, plates were incubated at room temperature for 30 min, and the luminescence intensity of each well was determined using a ViewLux plate reader (PerkinElmer, Shelton, CT).
(§3) Compound formatting and qHTS were performed as described previously ([Inglese et al. 2006]).
as §1, with “Analysis of compound concentration–response data was performed as previously described ([Inglese et al. 2006]). […] Concentration–response titration points for each compound were fitted to the Hill equation ([Hill 1910]), yielding concentrations of half-maximal inhibition (IC50) and maximal response (efficacy) values. […] Class” for “Class”

SH-SY5Y = test system: SH-SY5Y
Protocol: as §2, §3
as §1, with “Analysis of compound concentration–response data was performed as previously described ([Inglese et al. 2006]). […] Concentration–response titration points for each compound were fitted to the Hill equation ([Hill 1910]), yielding concentrations of half-maximal inhibition (IC50) and maximal response (efficacy) values. […] Class” for “Class”

N2a = conditions: mean ± SD
Protocol: as §2, §3
as §1, with “Analysis of compound concentration–response data was performed as previously described ([Inglese et al. 2006]). […] Concentration–response titration points for each compound were fitted to the Hill equation ([Hill 1910]), yielding concentrations of half-maximal inhibition (IC50) and maximal response (efficacy) values. […] Class” for “Class”

H-4-II-E = conditions: mean ± SD
Protocol: as §2, §3
as §1, with “Analysis of compound concentration–response data was performed as previously described ([Inglese et al. 2006]). […] Concentration–response titration points for each compound were fitted to the Hill equation ([Hill 1910]), yielding concentrations of half-maximal inhibition (IC50) and maximal response (efficacy) values. […] Class” for “Class”

MRC-5 = conditions: MRC-5, mean ± SD
Protocol: as §2, §3
as §1, with “Analysis of compound concentration–response data was performed as previously described ([Inglese et al. 2006]). […] Concentration–response titration points for each compound were fitted to the Hill equation ([Hill 1910]), yielding concentrations of half-maximal inhibition (IC50) and maximal response (efficacy) values. […] Class” for “Class”

BJ = conditions: mean ± SD
Protocol: as §2, §3
as §1, with “Analysis of compound concentration–response data was performed as previously described ([Inglese et al. 2006]). […] Concentration–response titration points for each compound were fitted to the Hill equation ([Hill 1910]), yielding concentrations of half-maximal inhibition (IC50) and maximal response (efficacy) values. […] Class” for “Class”

HepG2 = conditions: HepG2, mean ± SD
Protocol: as §2, §3
as §1, with “Analysis of compound concentration–response data was performed as previously described ([Inglese et al. 2006]). […] Concentration–response titration points for each compound were fitted to the Hill equation ([Hill 1910]), yielding concentrations of half-maximal inhibition (IC50) and maximal response (efficacy) values. […] Class” for “Class”

Mesangial = conditions: mean ± SD
Protocol: as §2, §3
as §1, with “Analysis of compound concentration–response data was performed as previously described ([Inglese et al. 2006]). […] Concentration–response titration points for each compound were fitted to the Hill equation ([Hill 1910]), yielding concentrations of half-maximal inhibition (IC50) and maximal response (efficacy) values. […] Class” for “Class”

HUV-EC-C = conditions: mean ± SD
Protocol: as §2, §3
as §1, with “Analysis of compound concentration–response data was performed as previously described ([Inglese et al. 2006]). […] Concentration–response titration points for each compound were fitted to the Hill equation ([Hill 1910]), yielding concentrations of half-maximal inhibition (IC50) and maximal response (efficacy) values. […] Class” for “Class”

SK-N-SH = conditions: mean ± SD
Protocol: as §2, §3
as §1, with “Analysis of compound concentration–response data was performed as previously described ([Inglese et al. 2006]). […] Concentration–response titration points for each compound were fitted to the Hill equation ([Hill 1910]), yielding concentrations of half-maximal inhibition (IC50) and maximal response (efficacy) values. […] Class” for “Class”

Jurkat = conditions: mean ± SD
Protocol: as §2, §3
as §1, with “Analysis of compound concentration–response data was performed as previously described ([Inglese et al. 2006]). […] Concentration–response titration points for each compound were fitted to the Hill equation ([Hill 1910]), yielding concentrations of half-maximal inhibition (IC50) and maximal response (efficacy) values. […] Class” for “Class”

HEK293 = type: cell-based
Protocol: as §2, §3
(§4) Analysis of compound concentration–response data was performed as previously described ([Inglese et al. 2006]). […] Compound activity correlations between different assays or experiments were assessed by calculating the Pearson correlation coefficient. […]

NIH 3T3 = type: cell-based, Mouse
Protocol: as §2, §3, §4

HepG2 cells = assay: Real-time cell electronic sensing (RT-CES) cytotoxicity assay; type: cell-based, Human; conditions: HepG2, RT-CES impedance, 0.14 to 100 μM
Protocol: HepG2 cells in the presence of compounds at concentrations from 0.14 to 100 μM were monitored by measurements of electrical impedance (ACEA Biosciences Inc., San Diego, CA) every 10 min for the first hour, then every hour for 70–90 hr.

**Q.** Which “Cytotoxicity pattern across the 13 cell types” value [1] does the source give for CC(=O)[O][Hg][c]1ccccc1 [phenyl mercuric acetate] here?
**A.** uniformly toxic across all cell types

**Q.** Which Hill coefficient [2] does the source give for CC/C(=C(\c1ccccc1)c1ccc(OCCN(C)C)cc1)c1ccccc1 [tamoxifen] here?
**A.** 4.7 ± 0.3

**Q.** What about the Hill coefficient (SH-SY5Y; SH-SY5Y, mean ± SD) of the same compound?
**A.** 3.1 ± 0.7

**Q.** What about the Hill coefficient (N2a) of the same compound?
**A.** 4.0 ± 0.8

**Q.** What about the Hill coefficient (H-4-II-E) of the same compound?
**A.** 2.7 ± 0.8

**Q.** What about the Hill coefficient (MRC-5) of the same compound?
**A.** 2.9 ± 1.2

**Q.** What about the Hill coefficient (BJ) of the same compound?
**A.** 3.1 ± 1.0

**Q.** And the Hill coefficient (HepG2)?
**A.** 4.4 ± 0.5

**Q.** And the Hill coefficient (Mesangial)?
**A.** 2.4 ± 0.8

**Q.** What about the Hill coefficient (HUV-EC-C) of the same compound?
**A.** 4.2 ± 0.5

**Q.** And the Hill coefficient (SK-N-SH)?
**A.** 3.4 ± 0.7

**Q.** And the Hill coefficient (Jurkat)?
**A.** 2.0 ± 0.2

**Q.** What about the Hill coefficient (HEK293; HEK293, mean ± SD) of the same compound?
**A.** 3.8 ± 1.0

**Q.** And the Hill coefficient (NIH 3T3; NIH 3T3, mean ± SD)?
**A.** 2.6 ± 0.8

**Q.** How did the “Cytotoxicity pattern across the 13 cell types” value [1] turn out when CN(C)c1ccc(C(=C2C=CC(=[N+](C)C)C=C2)c2ccccc2)cc1.CN(C)c1ccc(C(=C2C=CC(=[N+](C)C)C=C2)c2ccccc2)cc1.O=C(O)C(=O)O.O=C([O-])C(=O)O.O=C([O-])C(=O)O [malachite green oxalate] was run?
**A.** cytotoxicity in all cell types at similar concentrations

**Q.** How did the “Cytotoxicity pattern across the 13 cell types” value [1] turn out when CN(C)c1ccc(C(=C2C=CC(=[N+](C)C)C=C2)c2ccc(N(C)C)cc2)cc1.[Cl-] [hexamethyl-p-rosaniline chloride] was run?
**A.** cytotoxicity in all cell types at similar concentrations

**Q.** For C[C@@H]1CC[C@@]2(OC1)O[C@H]1[C@@H](O)[C@H]3[C@@H]4CC[C@H]5C[C@@H](O[C@@H]6O[C@H](CO)[C@H](O[C@@H]7O[C@H](CO)[C@@H](O)[C@H](O[C@@H]8OC[C@@H](O)[C@H](O)[C@H]8O)[C@H]7O[C@@H]7O[C@H](CO)[C@H](O)[C@H](O[C@@H]8O[C@H](CO)[C@@H](O)[C@H](O)[C@H]8O)[C@H]7O)[C@H](O)[C@H]6O)[C@H](O)C[C@]5(C)[C@H]4CC[C@]3(C)[C@H]1[C@@H]2C [digitonin], which “Exposure time to full cytotoxicity” value (HepG2 cells) is on record?
**A.** 10 min

**Q.** And the “Cytotoxicity pattern across the 13 cell types” value ([1]; 0.59 nM to 92 μM, 40 hr)?
**A.** cytotoxicity in all cell types at similar concentrations; also recorded: cytotoxic in all 13 cell types; also recorded: uniformly toxic across all cell types

**Q.** How did the “Species selectivity of cytotoxicity (human versus rodent cell types)” value (“Species selectivity of cytotoxicity” below) [1] turn out when C[C@H]1O[C@@H](O[C@H]2[C@@H](O)C[C@H](O[C@H]3[C@@H](O)C[C@H](O[C@H]4CC[C@@]5(C)[C@H](CC[C@@H]6[C@@H]5C[C@@H](O)[C@]5(C)[C@@H](C7=CC(=O)OC7)CC[C@]65O)C4)O[C@@H]3C)O[C@@H]2C)C[C@H](O)[C@@H]1O [digoxin] was run?
**A.** more toxic to human cells

**Q.** With COc1cccc2c1C(=O)c1c(O)c3c(c(O)c1C2=O)C[C@@](O)(C(=O)CO)C[C@@H]3O[C@H]1C[C@H](N)[C@H](O)[C@H](C)O1 [doxorubicin] as the compound, how does the “Exposure time to complete cytotoxicity” value (HepG2 cells) read?
**A.** 35 h

**Q.** And the “Cytotoxicity pattern across the 13 cell types” value ([1]; 0.59 nM to 92 μM, 40 hr)?
**A.** toxic in all cell types; also recorded: cytotoxic in all 13 cell types

**Q.** Which results are given for C[C@@H]1C[C@@H]([C@H](O)CC2CC(=O)NC(=O)C2)C(=O)[C@@H](C)C1 [cycloheximide]?
**A.** Kinetic response (cell index over time) (HepG2 cells): inhibited cell proliferation but did not decrease cell number below what was present at the time of addition; Cytotoxicity pattern across the 13 cell types ([1]; human, rat, mouse): cytotoxic in all but two cell types (MRC-5 and SH-SY5Y)

**Q.** O=C(Nc1ccccc1)Nc1ccccc1 [diphenylurea] was tested. Which “Species selectivity of cytotoxicity” value [1] did it give?
**A.** toxicity in cells from one species but not the other

**Q.** How did the “Species selectivity of cytotoxicity” value [1] turn out when CN(C)c1ccc(N=Nc2ccccc2)cc1 [dimethylaminoazobenzene] was run?
**A.** more toxic to rodent cells

**Q.** With [K+].[K+].[O]=[Cr](=[O])([O-])[O][Cr](=[O])(=[O])[O-] [potassium dichromate] as the compound, how does the “Exposure time to complete cytotoxicity” value (HepG2 cells) read?
**A.** 35 h

**Q.** What about the “Cytotoxicity pattern across the 13 cell types” value [1] of the same compound?
**A.** cytotoxic in all 13 cell types

**Q.** How did the “Cytotoxicity pattern across the 13 cell types” value ([1]; 0.59 nM to 92 μM, 40 hr) turn out when Cl.N=C1C=CC(=C(c2ccc(N)cc2)c2ccc(N)cc2)C=C1 [pararosaniline hydrochloride] was run?
**A.** cytotoxicity in all cell types at similar concentrations

**Q.** Which “Potency in NIH 3T3 relative to the next most responsive cell type” value (NIH 3T3) does the source give for [CH3][Hg][Cl] [methyl mercuric (II) chloride] here?
**A.** 50 fold

**Q.** With Cc1ccc2c(c1[N+](=O)[O-])C(=O)c1ccccc1C2=O [2-methyl-1-nitroanthraquinone] as the compound, how does the Cell type-selective toxicity (HEK293; in HEK293 cells) read?
**A.** selective toxicity

**Q.** How did the “Potency in SH-SY5Y relative to the next most responsive cell type” value (SH-SY5Y; more potent in SH-SY5Y) turn out when CN(C)C(=S)SSC(=S)N(C)C [tetra-methylthiuram disulfide] was run?
**A.** 250 fold
